Assay results from PubChem BioAssay (NCI).
Several values for one entry are separate records, joined by “and”; a condition that tells them apart may be missing. Equal values may be shown once.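 Five compound concentrations were applied to cells in 96-well plates for 48 hours; endpoints were derived by simple linear interpolation of the resulting dose-response curve. GI50 = concentration required for 50% inhibition of growth. The concentration for full growth arrest is given as TGI.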

What was measured:
Assay in all cases: NCI tumour cell line growth inhibition, 48 h
HCC-2998 colon = test system: HCC-2998 colon
U251 CNS = test system: U251 CNS
M14 melanoma = test system: M14 melanoma
SNB-75 CNS = test system: SNB-75 CNS
HL-60(TB) leukemia = test system: HL-60(TB) leukemia
COLO 205 colon = test system: COLO 205 colon
KM12 colon = test system: KM12 colon
NCI-H226 lung = test system: NCI-H226 lung
SW-620 colon = test system: SW-620 colon
MCF7 breast = test system: MCF7 breast
MALME-3M melanoma = test system: MALME-3M melanoma
OVCAR-4 ovarian = test system: OVCAR-4 ovarian
MOLT-4 leukemia = test system: MOLT-4 leukemia
OVCAR-5 ovarian = test system: OVCAR-5 ovarian
T-47D breast = test system: T-47D breast
UACC-257 melanoma = test system: UACC-257 melanoma
EKVX NSCLC = test system: EKVX NSCLC
IGROV1 ovarian = test system: IGROV1 ovarian
LOX IMVI melanoma = test system: LOX IMVI melanoma
A498 renal = test system: A498 renal
SK-OV-3 ovarian = test system: SK-OV-3 ovarian
SF-268 CNS = test system: SF-268 CNS
K-562 leukemia = test system: K-562 leukemia
SNB-19 CNS = test system: SNB-19 CNS
HOP-92 NSCLC = test system: HOP-92 NSCLC
RPMI-8226 leukemia = test system: RPMI-8226 leukemia
SF-295 CNS = test system: SF-295 CNS
SK-MEL-2 melanoma = test system: SK-MEL-2 melanoma
HS 578T breast = test system: HS 578T breast
HT29 colon = test system: HT29 colon

Structure (SMILES): CCN(CC)CCNc1ccc(C)c2sc3ccccc3c(=O)c12 (tested in a mixture with another compound)
- GI50 (HCC-2998 colon): 1.55 µM and 1.94 µM
- TGI (HCC-2998 colon): 3.03 µM and 4.51 µM
- TGI (U251 CNS): 6.92 µM and 8.17 µM
- TGI (M14 melanoma): 3.05 µM and 3.14 µM
- TGI (SNB-75 CNS): 4.6 µM and 6.21 µM
- GI50 (HL-60(TB) leukemia): 2.41 µM
- TGI (HL-60(TB) leukemia): 3.72 µM and 7.76 µM
- TGI (COLO 205 colon): 3 µM and 3.1 µM
- TGI (KM12 colon): 9.82 µM and 11.6 µM
- GI50 (NCI-H226 lung): 1.62 µM and 2.27 µM
- TGI (NCI-H226 lung): 3.25 µM and 5.09 µM
- TGI (SW-620 colon): 3.46 µM and 3.72 µM
- GI50 (MCF7 breast): 1.81 µM and 1.75 µM
- TGI (MCF7 breast): 3.85 µM and 3.73 µM
- GI50 (MALME-3M melanoma): 1.65 µM and 1.71 µM
- TGI (MALME-3M melanoma): 3.46 µM and 3.45 µM
- GI50 (OVCAR-4 ovarian): 3.91 µM
- TGI (OVCAR-4 ovarian): 13.6 µM and 17.3 µM
- GI50 (MOLT-4 leukemia): 2.55 µM and 2.57 µM
- TGI (MOLT-4 leukemia): 6.33 µM and 6.48 µM
- GI50 (OVCAR-5 ovarian): 1.8 µM and 2.35 µM
- TGI (OVCAR-5 ovarian): 3.98 µM and 5.87 µM
- GI50 (T-47D breast): 1.75 µM and 2.29 µM
- TGI (T-47D breast): 4.64 µM and 7.22 µM
- GI50 (UACC-257 melanoma): 2.31 µM
- TGI (UACC-257 melanoma): 4.8 µM
- GI50 (EKVX NSCLC): 5.1 µM and 4.96 µM
- TGI (EKVX NSCLC): 19.7 µM and 19.5 µM
- GI50 (IGROV1 ovarian): 1.54 µM and 2.75 µM
- TGI (IGROV1 ovarian): 3.1 µM and 9.38 µM
- GI50 (LOX IMVI melanoma): 1.86 µM and 1.7 µM
- TGI (LOX IMVI melanoma): 3.88 µM and 3.81 µM
- GI50 (A498 renal): 1.83 µM
- TGI (A498 renal): 4.11 µM and 7.09 µM
- GI50 (SK-OV-3 ovarian): 2.11 µM and 2.91 µM
- TGI (SK-OV-3 ovarian): 5.63 µM and 9.21 µM
- GI50 (SF-268 CNS): 3.91 µM and 3.3 µM
- TGI (SF-268 CNS): 14.8 µM and 12.5 µM
- TGI (K-562 leukemia): 3.92 µM and 4.27 µM
- GI50 (SNB-19 CNS): 3.95 µM
- TGI (SNB-19 CNS): 11.4 µM and 15.7 µM
- GI50 (HOP-92 NSCLC): 1.34 µM and 1.76 µM
- TGI (HOP-92 NSCLC): 6.77 µM and 8.86 µM
- TGI (RPMI-8226 leukemia): 4.49 µM and 4.35 µM
- TGI (SF-295 CNS): 5.3 µM and 5.37 µM
- TGI (SK-MEL-2 melanoma): 8.28 µM
- GI50 (HS 578T breast): 1.91 µM and 1.78 µM
- TGI (HS 578T breast): 4.75 µM and 5 µM
- TGI (HT29 colon): 3.79 µM
